Measurements as given in the supplement of paper PMC10307832.

Assays:
Test in all cases: relative viability (nuclei count vs DMSO), 5 days (fraction); higher = more cells survive
[1] = compound: C1CSC2=C(C(=O)N1)SC3=C2C=C(C=C3)O [kb NB 142-70] + CC(=O)Nc1cccc(-n2c(=O)n(C3CC3)c(=O)c3c(Nc4ccc(I)cc4F)n(C)c(=O)c(C)c32)c1 [Trametinib] (partner 0.02 µM)
In short: (§1)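 Each reported value is a median over duplicate plates. It expresses relative viability: treated-well nuclei count divided by vehicle-well nuclei count. Lung cancer cell lines in 1536-well plates were dosed by pin tool a day after seeding, alone with one drug or with a fixed anchor-drug dose plus five library-drug doses (not always all listed) in √10 steps, and nuclei were counted after 5 days.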

[2] = compound: C1CSC2=C(C(=O)N1)SC3=C2C=C(C=C3)O [kb NB 142-70] + C[C@]1(O)C[C@@H](c2nc(-c3ccc4ccc(-c5ccccc5)nc4c3)c3c(N)nccn32)C1 [Linsitinib] (partner 1 µM)
In short: as §1

[3] = compound: NCC(=O)Nc1ccc(-n2nc(C(F)(F)F)cc2-c2ccc3c(ccc4ccccc43)c2)cc1 + N=C(N)NC(=N)NCCc1ccccc1 [Phenformin] (partner 250 µM)
In short: as §1

[4] = compound: NCC(=O)Nc1ccc(-n2nc(C(F)(F)F)cc2-c2ccc3c(ccc4ccccc43)c2)cc1 + Nc1nc2[nH]cc(CCc3ccc(C(=O)N[C@@H](CCC(=O)O)C(=O)O)cc3)c2c(=O)[nH]1 [Pemetrexed] (partner 0.2 µM)
In short: as §1

Cell Line	relative viability ([1]; first compound 0.1 µM)	relative viability ([1]; first compound 1 µM)	relative viability ([1]; first compound 3.162 µM)	relative viability ([2]; first compound 0.1 µM)	relative viability ([2]; first compound 1 µM)	relative viability ([2]; first compound 3.162 µM)	relative viability ([3]; first compound 0.02 µM)	relative viability ([3]; first compound 0.06325 µM)	relative viability ([3]; first compound 0.2 µM)	relative viability ([3]; first compound 0.6325 µM)	relative viability ([3]; first compound 2 µM)	relative viability ([4]; first compound 0.02 µM)	relative viability ([4]; first compound 0.06325 µM)	relative viability ([4]; first compound 0.2 µM)	relative viability ([4]; first compound 0.6325 µM)	relative viability ([4]; first compound 2 µM)
NCI-H1395	1.02	0.891	1.02	1.15	1.26	0.765	0.5	0.422	0.434	0.469	0.475	0.876	0.896	0.969	0.8	0.894
201T	0.687	0.727	0.752	1.04	1.05	1.02	0.448	0.489	0.408	0.466	0.446	0.321	0.32	0.326	0.301	0.311
NCI-H460	0.205	0.192	0.228	0.704	1	0.277	0.482	0.504	0.505	0.537	0.458	0.0659	0.064	0.0588	0.0727	0.0577
NCI-H661	0.532	0.578	0.567	0.561	0.607	0.602	0.267	0.259	0.268	0.295	0.27	0.882	0.954	0.929	0.915	0.907
HCC-15	0.373	0.355	0.444	0.86	0.89	0.697	0.438	0.497	0.476	0.497	0.506	0.209	0.209	0.212	0.217	0.229
LCLC-103H	0.672	0.654	0.803	0.989	1.2	1.15	0.344	0.331	0.332	0.327	0.315	0.406	0.481	0.434	0.447	0.437
NCI-H441	0.473	0.383	0.287	0.656	0.457	0.356	0.898	0.819	0.954	1.01	0.844	0.253	0.279	0.273	0.259	0.243
EPLC-272H	0.275	0.274	0.295	1.07	1.05	0.599	0.289	0.366	0.261	0.324	0.294	0.275	0.395	0.308	0.356	0.315
